For one molecule, Km results are on record in patent US4965194A, “Pyruvate oxidase and an analytical method using the same” (Toyo Boseki Kabushiki Kaisha, priority 1986, dated 1990).

The subject of the assay is pyruvate oxidase (EC 1.2.3.3) of Lactobacillus sp. TE6103 (FERM BP-1419). The experiment in a line: Km determination of the thermostable pyruvate oxidase (physicochemical characteristics of the enzyme). It counts as biochemical. The following applies: purified enzyme from Lactobacillus sp. TE6103; activity assay at 37° C., pH 7.0, with thiamine pyrophosphate and FAD; read-out: Km for pyruvic acid. The protocol:
The activity of the resulting pyruvate oxidase can be measured as follows:
First, from the mixture of the ingredients listed above, 2.5 ml is sampled and placed in a test tube, and 0.5 ml of a 0.3 M solution of potassium pyruvate is added thereto. The mixture is then heated at 37° C. for 5 minutes. To this, 0.05 ml of the enzyme solution is added, and the mixture gently stirred; then, the changes (ΔOD) in the optical density at 500 nm over 1 minute of the mixture at 37° C. are monitored in a spectrophotometer against water. Next, in place of the enzyme solution, 0.05 ml of a 50 mM potassium phosphate buffer (pH 7.0) is used, and the same steps as above are followed to measure the changes (ΔOD) in optical density over 1 minute; this is the blank test. Under these conditions, the enzyme activity of pyruvate oxidase that produces 1 μmol of hydrogen peroxide is taken to be one unit (U).
The physicochemical characteristics of the enzyme activity of this invention will be shown below.

For the molecule `CC(=O)C(=O)O` [pyruvic acid], the Km was about 400 µM.

A word on the Km: it is the substrate concentration at which the rate is half of its maximum.
